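1) Cells in 96-well plates. 2) Compound, 48 h, 5 concentrations. 3) Linear interpolation between surrounding doses. 4) Unreached endpoint = highest concentration. The concentration for 50% growth inhibition is given as GI50.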 Calls of active or inactive are those of the source. Cut-off read from the data, not from the text of the source: active = GI50 up to about 1.1 µM and inactive = higher.
Tests used:
Assay in all cases: NCI anticancer screen, dose series, 48 h
[1] = test system: DLD-1
[2] = test system: DMS-114
[3] = test system: HOP-18
[4] = test system: LXFL 529
[5] = test system: M19-MEL
[6] = test system: RXF 631
[7] = test system: SNB-78
[8] = test system: XF498
[9] = test system: DMS-273

Measured: GI50

COc1ccc(/C=C/C(=O)c2sc(NC(=S)NC(=O)c3ccc(Cl)cc3)nc2C)cc1OC
inactive: [1] 49.4 µM | [2] 41.6 µM | [3] 5.89 µM | [4] 32.2 µM | [5] 53.2 µM | [6] 48.6 µM | [7] 54.3 µM | [8] 34.8 µM

COc1cc(NS(C)(=O)=O)ccc1NCc1c2ccccc2nc2ccccc12
inactive: [1] 17.1 µM | [2] 17.3 µM | [9] 28.4 µM | [4] 29 µM | [5] > 10 µM | [6] 15 µM | [8] 33.4 µM

O=C1N/C(=C\[N+](=O)[O-])c2ccccc21
inactive: [1] > 100 µM | [2] > 100 µM | [9] > 100 µM | [3] > 100 µM | [4] > 100 µM | [5] > 100 µM | [6] > 100 µM | [7] > 100 µM

COc1ccc(C2=NOP(c3ccccc3)(c3ccccc3)(c3ccccc3)C2)cc1
inactive: [1] 20.8 µM | [2] 8.61 µM | [9] 16.6 µM | [3] 24.9 µM | [4] 5.57 µM | [5] 21.7 µM | [6] 22.4 µM | [7] 36.5 µM | [8] 20.7 µM

O=[N+]([O-])CCc1cccc([N+](=O)[O-])c1
inactive: [1] > 100 µM | [2] > 100 µM | [9] > 100 µM | [3] > 100 µM | [4] > 100 µM | [5] > 100 µM | [7] > 100 µM

COc1cc([C@@H]2c3cc4c(cc3[C@@H](OC3OC5CO[C@@H](c6cccs6)OC5C(O)C3O)[C@H]3COC(=O)[C@H]23)OCO4)cc(OC)c1O (stereo not given in full)
inactive: [1] 2.18 µM | [3] 1.57 µM
active: [9] 0.084 µM | [5] 0.828 µM | [7] 1.08 µM | [8] 0.31 µM

CCCN(CCCCC(NC(C)=O)C(=O)NCc1ccccc1)C(=O)NCCCl (stereo not given)
inactive: [1] > 100 µM | [2] > 100 µM | [9] > 100 µM | [3] > 100 µM | [4] > 100 µM | [5] > 100 µM | [6] > 100 µM | [8] > 100 µM

COc1cc2cc3c4c(cc(OC)c(OC)c4c2cc1OC)CCN3C(=O)CCC(=O)NCCCN(C)C
inactive: [1] 16.9 µM | [2] 27.8 µM | [9] 73.1 µM | [3] > 100 µM | [4] 61 µM | [5] 22.8 µM | [7] > 100 µM | [8] 24.9 µM

Cc1ccc2c(c1)CN(C(=O)CCC(=O)OCc1ccccc1)c1ccc(C)cc1CN2C(=O)CCC(=O)OCc1ccccc1
inactive: [1] > 100 µM | [2] > 100 µM | [9] > 100 µM | [3] > 100 µM | [4] > 100 µM | [5] > 100 µM | [7] > 100 µM

CC(=O)O[C@H]1CCC2[C@@H]3CCC4Nc5c(cnn5-c5ccccc5)C[C@]4(C)C3CC[C@@]21C (stereo not given in full)
inactive: [1] 32.7 µM | [2] 11.7 µM | [9] 3.18 µM | [3] 31.8 µM | [4] 12.6 µM | [5] 11.7 µM | [6] 14.9 µM | [7] 14.4 µM | [8] 6.52 µM

CCc1ccccc1-n1c2nc(=O)n(C)c(=O)c-2nc2ccccc21
inactive: [1] 16.3 µM | [2] 3.83 µM | [9] 8.71 µM | [3] 11.9 µM | [4] 11.1 µM | [5] 1.85 µM | [7] 16.9 µM | [8] 10.3 µM

Source: ChEMBL document CHEMBL1201862, “PubChem BioAssay data set” (2004)
